The source of these data is patent publication EP4741383A1, “COMPOUND AND USE THEREOF AS ANTI-CANCER DRUG” (Tyligand Bioscience (Shanghai) Limited, priority 2023, dated 2025).

Where two headings read alike, the source gives them in different places.

This data set can be described thus: Rat PK study (IV 1 mg/kg and PO 5 mg/kg). The data set is classed as in vivo, male SD rats. The following applies: for AUC(0-t) / clearance / half-life / Vd / Cmax: male, SD, rat, plasma; for clearance: read-out: IV Cl; for Vd: read-out: IV Vz. Here is the method: According to standard methods for rat PK studies in this field, the rat PK tests for the representative compounds of this disclosure and the positive control compound (11a-1) were conducted as follows.
Specifically, six male SD rats (6-8 weeks old, weighing 200 ± 20 g, purchased from Vital River Laboratories) were randomly divided into two groups of three rats each, for intravenous (IV) and oral gavage (PO) administration, respectively.
For the intravenous injection group: the test compound was weighed according to the administration dose (1 mg/kg), dissolved using the solvent listed in the table below to obtain a clear solution of 1 mg/mL, and administered to the rats via tail vein injection at a dose of 1 mg/kg. […]
Blood was collected via jugular vein puncture at various time points: 0.083, 0.25, 0.5, 1, 2, 4, 6, 8, and 24 hours. 0.2 mL of whole blood was collected at each time point, placed in a 1.5 mL anticoagulant tube containing EDTA, and placed on a sample plate containing wet ice until centrifugation; after centrifugation at 8000 rpm for 10 minutes at 4°C, 0.1 mL of plasma sample was collected and stored in an […] cryovial at -20°C until analysis.
Preparation of the stock solution of the test compound: 1 mg of the test compound was accurately weighed, dissolved in 1 mL of DMSO to prepare a 1 mg/mL stock solution S1, and stored in a 4°C refrigerator until use.
Preparation of the internal standard working solution: 0.1 mL of tolbutamide (2 mg/mL) internal standard stock solution was pipetted into 1000 mL of acetonitrile to prepare a 200 ng/mL internal standard working solution, which is used as a protein precipitant in sample pretreatment. The prepared internal standard working solution was stored at 4°C and valid for 12 months.
Preparation of the standard curve and quality control sample working solutions: 50 µL of the 1 mg/mL test compound DMSO stock solution S1 was diluted with 950 µL of 100% methanol solution to obtain a working solution with a concentration of 50000 ng/mL. Then, the 50000 ng/mL working solution was serially diluted with 100% methanol solution to obtain a series of standard curve working solutions with concentrations of 10, 20, 50, 100, 500, 1000, 5000, 10000, 20000, and 50000 ng/mL. 40 µL of the 1 mg/mL test compound DMSO stock solution S1 was diluted with 960 µL of 100% methanol solution to obtain a quality control sample working solution with a concentration of 40000 ng/mL. An appropriate amount of this working solution was diluted appropriately to prepare quality control sample working solutions with concentrations of 8000 and 16000 ng/mL. 60 µL of the 50 ng/mL test compound DMSO standard curve working solution was diluted with 40 µL of 100% methanol solution to obtain a quality control sample working solution with a concentration of 30 ng/mL.
Plasma sample treatment: standard curve and quality control samples for the test compound in plasma were prepared by diluting 5 µL of working solutions of different concentrations of the test compound for the standard curve and quality control samples in 45 µL of blank rat plasma, resulting in final concentrations of 1, 2, 5, 10, 50, 100, 500, 1000, 2000, and 5000 ng/mL for the standard curve and final concentrations of 3, 800, 1600, and 4000 ng/mL for the quality control samples.
Plasma sample pretreatment: 50 µL of the plasma sample was transferred to a 96-well plate, added with 500 µL of acetonitrile containing 200 ng/mL tolbutamide as an internal standard for protein precipitation, and centrifuged at 4000 rpm for 20 minutes at 2-8 °C. 300 µL of the supernatant was transferred to a new labeled 96-well plate, mixed thoroughly with 300 µL of 0.1% formic acid in water, and injected 10 µL into LC-MS/MS (API-4000 Qtrap-Shimadzu Controller-CBM20A).
The internal standard method was used for sample analysis. Data acquisition and analysis were performed using Analyst 1.6.3. […]

The mark [1] stands for this setting: 1 mg/kg, IV, dose 1 mpk, read-out: IV AUC 0->t.
Where [2] appears, read: 1 mg/kg, IV, dose 1 mpk, read-out: IV T1/2 (converted).
Setting [3] is: 5 mg/kg, PO, dose 5 mpk, read-out: PO AUC 0->t.
[4] abbreviates: 5 mg/kg, PO, dose 5 mpk, read-out: PO T1/2 (converted).

For `CC1(n2c(-c3ccc(NC(=O)C(=O)Nc4ccc(N5CCC6(CCOC6)CC5)cc4)cc3)cc3cc(F)c(-c4nnn[nH]4)cc32)CCC1` [Example 68], for the setting “PO, dose 5 mpk (IV 1 mpk)”, the “PO F” value is 30.5%. Also, the AUC(0-t) (usually the area under the concentration-time curve up to a stated or last time point) under setting [1] came out at 1380 ng·h/mL and the AUC(0-t) under setting [3] is 2100 ng·h/mL. In addition, the clearance (1 mg/kg, IV, dose 1 mpk) came to 12.6 mL/min/kg. Moreover, the half-life is 1.63 h under setting [2] and 4.31 h under setting [4]. Further, where the note is “1 mg/kg, IV, dose 1 mpk”, the Vd was 1.57 L/kg. In addition, the concentration (5 mg/kg, PO, dose 5 mpk) peaked (Cmax) at 150 ng/mL.
For `O=C(Nc1ccc(-c2cc3cc(F)c(-c4nnn[nH]4)cc3n2C2CCC2)cc1)C(=O)Nc1ccc(N2CCC(CO)CC2)cc1` [Example 23], for the setting “PO, dose 5 mpk (IV 1 mpk)”, the “PO F” value stood at 52.7%. Further, the AUC(0-t) is 2840 ng·h/mL under setting [1] and 8010 ng·h/mL under setting [3]. Besides, the clearance (1 mg/kg, IV, dose 1 mpk) stood at 5.45 mL/min/kg. In addition, the half-life was 8.49 h under setting [2] and 3.17 h under setting [4]. The Vd (1 mg/kg, IV, dose 1 mpk) is 4.01 L/kg. The highest level (5 mg/kg, PO, dose 5 mpk) (Cmax) was 1140 ng/mL.
On to `Cn1c(-c2cccc(NC(=O)C(=O)Nc3ccc(-c4ccsc4)cc3)c2)c(I)c2cc(C(=O)O)c(O)cc21` [Example 11a-1, reference compound], for which the “PO F” value (PO, dose 10 mpk (IV 1 mpk)) is given as 0.07%. Moreover, the AUC(0-t) came out at 4230 ng·h/mL under setting [1] and 30 ng·h/mL (10 mg/kg, PO, dose 10 mpk, read-out: PO AUC 0->t). For the same compound, the clearance (1 mg/kg, IV, dose 1 mpk) was 4 mL/min/kg. The half-life runs as follows: under setting [2], 4.06 h; (10 mg/kg, PO, dose 10 mpk, read-out: PO T1/2 (converted)) 1.1 h. The Vd (1 mg/kg, IV, dose 1 mpk) was found to be 1.42 L/kg. Moreover, under “10 mg/kg, PO, dose 10 mpk”, the Cmax (as a rule, the highest concentration seen after dosing) turned out to be 44.2 ng/mL.
